Reference: article PMC10828444, “Selective inhibition of overactive warmth-sensitive Ca^2+-permeable TRPV3 channels by antispasmodic agent flopropione for alleviation of skin inflammation” (The Journal of Biological Chemistry, 2023)
Like-named read-outs stand apart in the source and are kept apart here. Values belong to the compound of their own block, whether it stands above or below them.

Columns and labels:
hTRPV3 single channel = target: T1, hTRPV3 single channel (Homo sapiens, UniProt Q8NET8); test: Inside-out single-channel recordings of TRPV3 in HEK293 cells; assay type: cell-based; settings: agonist 2-APB 30 μmol/L alone, −60 mV
T1 construct: expressed in transfected cells; host or cells: HEK293
T1 sequence (Q8NET8 1-790): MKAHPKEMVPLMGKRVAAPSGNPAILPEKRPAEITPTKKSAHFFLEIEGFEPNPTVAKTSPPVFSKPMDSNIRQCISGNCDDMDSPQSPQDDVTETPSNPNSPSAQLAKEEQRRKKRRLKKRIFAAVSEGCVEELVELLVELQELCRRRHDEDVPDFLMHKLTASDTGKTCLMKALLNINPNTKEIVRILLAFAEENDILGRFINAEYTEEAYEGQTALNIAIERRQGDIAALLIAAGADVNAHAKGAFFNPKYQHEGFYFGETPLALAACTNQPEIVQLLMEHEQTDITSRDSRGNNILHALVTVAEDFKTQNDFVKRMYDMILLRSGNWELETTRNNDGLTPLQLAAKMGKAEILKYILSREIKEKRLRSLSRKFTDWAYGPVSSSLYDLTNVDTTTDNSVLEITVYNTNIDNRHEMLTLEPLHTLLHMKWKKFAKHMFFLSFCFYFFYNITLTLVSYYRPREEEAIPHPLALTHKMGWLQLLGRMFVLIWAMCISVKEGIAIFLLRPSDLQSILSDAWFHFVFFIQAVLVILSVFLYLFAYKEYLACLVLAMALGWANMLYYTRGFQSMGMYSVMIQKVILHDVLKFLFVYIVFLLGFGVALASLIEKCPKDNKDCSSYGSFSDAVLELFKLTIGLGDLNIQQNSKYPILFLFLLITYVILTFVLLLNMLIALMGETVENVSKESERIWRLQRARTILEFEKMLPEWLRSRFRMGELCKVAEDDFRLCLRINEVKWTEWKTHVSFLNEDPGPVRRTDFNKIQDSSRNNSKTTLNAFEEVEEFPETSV
Excerpt: For single-channel recordings, borosilicate glass pipettes were pulled from borosilicate glass capillaries and fire-polished to the resistance between 6 and 10 MΩ using a DMZ universal electrode puller (Zeitz-Instruments, GmbH). For inside-out single-channel recordings, both pipette and external solutions contained (in mM): 130 NaCl, three HEPES, and 0.2 EDTA (pH = 7.4). Membrane potential was clamped at −60 mV and currents were digitized at 10 kHz and filtered at 2 kHz.

TRPV3 = settings: cited from earlier work
TRPV2 = tested on: TRPV2; design: method as in PMID 33876725; settings: ref [18]; read-out: IC50 TRPV2 currents; cited from earlier work
TRPM8 = tested on: TRPM8; design: method as in PMID 33876725; settings: ref [18]; read-out: IC50 TRPM8 currents; cited from earlier work
TRPV1 = tested on: TRPV1; design: method as in PMID 30108138, PMID 27160770; settings: ref [16], [42]; cited from earlier work
TRPV4 = tested on: TRPV4; design: method as in PMID 30108138, PMID 27160770; settings: ref [16], [42]; cited from earlier work
TRPA1 = tested on: TRPA1; design: method as in PMID 30377214; settings: ref [17]; cited from earlier work

single-channel conductance (hTRPV3 single channel): about 170.9 ± 4.8 pS
single-channel open probability (hTRPV3 single channel): 0.75
Compound: NCCOB(c1ccccc1)c1ccccc1 [2-APB, 2-aminoethoxydiphenyl borate]

Compound: CCCCOc1ccc(C(=O)CCN2CCCCC2)cc1 [dyclonine]
IC50 (TRPV3; ref [18], read-out: IC50 TRPV3 currents): ~3.2 µM
IC50 (TRPV2): 31 µM
IC50 (TRPM8): 82 µM

Compound: COc1ccc2ccc(=O)oc2c1CC=C(C)C [osthole]
IC50 (TRPV3; ref [16], [42], read-out: IC50 TRPV3): ~37 µM
inhibition of TRPV1 (TRPV1): weak inhibition
inhibition of TRPV4 (TRPV4): weak inhibition

Compound: forsythoside B
IC50 (TRPV3; ref [17], read-out: IC50 TRPV3 currents): ~6.7 µM
inhibition of TRPA1 currents (TRPA1): weak inhibition
